Test results from patent publication US7045515B2, “β-lactam compounds process for reproducing the same and serum cholesterol-lowering agents containing the same” (Kotobuki Pharmaceutical Co., Ltd., priority 2001, dated 2006).
Where two headings read alike, the source gives them in different places. Each block holds one compound with its values, some of them ahead of it.

How the values were obtained:
[1] = tested on: hypercholesterolemic hamster; experiment: Hypocholesterolemic activity in hamsters fed a 0.5%-cholesterol diet; assay type: in vivo; conditions: Mesocricetus auratus, po, negative = hypocholesterolemic action, read-out: Serum cholesterol (%); for change in vivo at 3 mg/kg: 3 mg/kg orally daily; for change in vivo at 20 mg/kg: 20 mg/kg orally daily; for change in vivo at 10 mg/kg: 10 mg/kg orally daily; for change in vivo at 0.3 mg/kg: 0.3 mg/kg orally daily
Procedure: [Hypocholesterolemic Agents Using the Hypercholesterolemic Hamster]
Hamsters were derived into groups with 3 animals per group and fed a 0.5%-cholesterol containing CE-2 diet (CLEA Japan Inc.) for 4 or 7 days. The normal dietary group were fed a standard CE-2 during the experiment. Each compound or vehicle (0.2 mL of corn oil) per 100 g body weight was orally administered daily for 4 or 7 days from the day that high-cholesterol diet was started. At 20 hr after the final administration, blood samples were collected from the abdominal aorta of non-fasted animals under anesthesia with diethylether. Serum cholesterol was measured by enzymatic method using cholesterol E-test wako (Wako Pure Chemical Industries). Activity of the test compounds is expressed as percent reduction of the test compound on the basis of comparison with rised total cholesterol treated only with no-treatment-high-cholesterol diet. The test compounds with the optical rotation value in the compounds 1–58 were evaluated as the chiral compounds.

[2] = tested on: α-N-acetyl-D-galactosaminidase; experiment: Biological stability test against glycosidase (remaining substrate by NMR); assay type: in vitro ADME; conditions: for remaining substrate: α-N-acetyl galactosaminidase 0.32 unit, citric acid buffer pD=3, 35° C.
Procedure: [Biological Stability Test]
To evaluate the stability of C-glycoside, the biological stability of C-allyl derivative (A) and O-allyl derivative (B) against to α-N-acetyl-D-galactosaminidase as glycosidase ware compared according to Mark von Itzstein's method (Org. Lett., 1999, 1, 443–446).
[drawing 118] • enzyme; α-N-acetyl galactosaminidase 0.32 unit (1.69 unit/mL 0.1% BSA containing 0.5M sodium citrate buffer) • solvent; citric acid buffer (pD=3) 0.6 mL • temperature; 35° C. • procedure; Substrate (2 mg) was dissolved in citric acid buffer (0.6 mL) and α-N-acetyl galactosaminidase (0.32 unit) was added. NMR spectrum was determined in every constant time and the content of the remaining substrates were determined.

[3] = 168 h, dosage day 7, changed percent vs rise in total cholesterol on high-cholesterol diet
[4] = 96 h, dosage day 4, changed percent

Compound: O=C1[C@H](CCCc2ccc(F)cc2)[C@@H](c2ccc(C[C@@H]3O[C@H](CO)[C@@H](O)[C@H](O)[C@H]3O)cc2)N1c1ccc(F)cc1 (relative stereo) [Compound 2, (4S*,3R*)-4-(4-{[(2S,5S,3R,4R,6R)-3,4,5-Trihydroxy-6-(hydroxymethyl)perhydro-2H-pyran-2-yl]methyl}phenyl)-1-(4-fluorophenyl)-3-[3-(4-fluorophenyl)propyl]azetidine-2-one]
change in vivo at 3 mg/kg [1, 3]: -120%
melting point: 110 to 112 °C

Compound: CC(=O)OC[C@H]1O[C@@H](Cc2ccc([C@@H]3[C@@H](CCOc4ccc(F)cc4)C(=O)N3c3ccc(F)cc3)cc2)[C@H](OC(C)=O)[C@@H](OC(C)=O)[C@@H]1OC(C)=O (relative stereo) [Compound 13, (3S,2R,4R,5R,6R)-2-[(4-{(4S*,3R*)-1-(4-Fluorophenyl)-3-[2-(4-fluorophenoxy)ethyl]-2-oxoazetidine-4-yl}phenyl)methyl]-4,5-diacetyloxy-6-(acetoxymethyl)perhydro-2H-pyran-3-ylacetate]
change in vivo at 20 mg/kg [1, 4]: -28%
melting point: 64 to 66 °C

Compound: O=C1[C@H](CCOc2ccc(F)cc2)[C@@H](c2ccc(OCC3O[C@H](CO)[C@@H](O)[C@H](O)[C@H]3O)cc2)N1c1ccc(F)cc1 (relative stereo) [Compound 15, (4S*,3R*)-4-(4-{[(4S,5S,2R,3R,6R)-3,4,5-Trihydroxy-6-(hydroxymethyl)perhydro-2H-pyran-2-yl]methoxy}phenyl)-1-(4-fluorophenyl)-3-[2-(4-fluorophenoxy)ethyl]azetidine-2-one]
change in vivo at 20 mg/kg [1, 4]: -21%
melting point: 64 to 65 °C

Compound: C=CC[C@H]1O[C@H](CO)[C@H](O)[C@H](O)[C@H]1NC(C)=O [A]
effect of enzyme on substrate (degradation) ([2]; after 24 h): unaffected by enzyme
remaining substrate ([2]; time 2): 100
remaining substrate ([2]; time 4): 100
remaining substrate ([2]; time 6): 100
remaining substrate ([2]; time 8): 100
remaining substrate ([2]; time 10): 100
remaining substrate ([2]; time 12): 100
remaining substrate ([2]; time 18): 100
remaining substrate ([2]; time 24): 100

Compound: O=C1[C@H](CC[C@H](O)c2ccc(F)cc2)[C@@H](c2ccc(C[C@@H]3O[C@H](CO)[C@@H](O)[C@H](O)[C@H]3O)cc2)N1c1ccccc1 [Compound 23, (4S,3R)-3-[(3S)-3-(4-Fluorophenyl)-3-hydroxypropyl]-4-(4-{[(2S,5S,3R,4R,6R)-3,4,5-trihydroxy-6-(hydroxymethyl)perhydro-2H-pyran-2-yl]methyl}phenyl)-1-phenylazetidine-2-one]
change in vivo at 3 mg/kg [1, 3]: -177%
melting point: 104 to 106 °C

Compound: Cc1ccc(N2C(=O)[C@H](CC[C@H](O)c3ccc(F)cc3)[C@H]2c2ccc(C[C@@H]3O[C@H](CO)[C@@H](O)[C@H](O)[C@H]3O)cc2)cc1 [Compound 24, (4S,3R)-3-[(3S)-3-(4-Fluorophenyl)-3-hydroxypropyl]-4-(4-{[(2S,5S,3R,4R,6R)-3,4,5-trihydroxy-6-(hydroxymethyl)perhydro-2H-pyran-2-yl]methyl}phenyl)-1-(4-methylphenyl)azetidine-2-one]
change in vivo at 3 mg/kg [1, 3]: -156%
melting point: 102 to 104 °C

Compound: Cc1ccc(N2C(=O)[C@H](CCC(=O)c3ccc(F)cc3)[C@H]2c2ccc(C[C@@H]3O[C@H](CO)[C@@H](O)[C@H](O)[C@H]3O)cc2)cc1 [Compound 28, (4S,3R)-4-(4-{[(2S,5S,3R,4R,6R)-3,4,5-Trihydroxy-6-(hydroxymethyl)perhydro-2H-pyran-2-yl]methyl}phenyl)-1-(4-methylphenyl)-3-[3-(4-fluorophenyl)-3-oxopropyl]azetidine-2-one]
change in vivo at 3 mg/kg [1, 3]: -130%
melting point: 86 to 88 °C

Now from value to compound, other results behind:

melting point: 111 to 113 °C
Compound: O=C1[C@H](CC[C@H](O)c2ccc(C3OC(CO)C(O)C(O)C3O)cc2)C(c2ccc(F)cc2)N1c1ccc(F)cc1 (stereo in doubt) [Compound 49, 3-((3S)-(4-[(2S,5S,3R,4R,6R)-3,4,5-Trihydroxy-6-(hydroxymethyl)perhydro-2H-pyran-2-yl]phenyl}-3-hydroxypropyl)(4S,3R)-1,4-bis(4-fluorophenyl)azetidine-2-one]
change in vivo at 10 mg/kg [1, 4]: -55%

melting point: 82 to 84 °C
Compound: O=C(O)[C@H]1O[C@@H](Cc2ccc([C@@H]3[C@@H](CC[C@H](O)c4ccc(F)cc4)C(=O)N3c3ccc(F)cc3)cc2)[C@H](O)[C@@H](O)[C@@H]1O [Compound 33]
change in vivo at 3 mg/kg [1, 4]: -67%

melting point: 200 to 201 °C
Compound: O=C1[C@H](CC[C@H](O)c2ccc(F)cc2)[C@@H](c2ccc(F)cc2)N1c1ccc(C[C@@H]2O[C@H](CO)[C@@H](O)[C@H](O)[C@H]2O)cc1 [Compound 38, (4S,3R)-3-[(3S)-3-(4-Fluorophenyl)-3-hydroxypropyl]-1-(4-{[(2S,5S,3R,4R,6R)-3,4,5-trihydroxy-6-(hydroxymethyl)perhydro-2H-pyran-2-yl]methyl}phenyl)-1-(4-fluorophenyl)azetidine-2-one]
change in vivo at 10 mg/kg [1, 4]: -2%

melting point: 84 to 86 °C
Compound: O=C1[C@H](CC[C@H](O)c2ccc(F)cc2)[C@@H](c2ccc(/C=C/[C@@H]3O[C@H](CO)[C@@H](O)[C@H](O)[C@H]3O)cc2)N1c1ccc(F)cc1 [Compound 45, (4S,3R)-3-[(3S)-3-(4-Fluorophenyl)-3-hydroxypropyl]4-(4-{[(2S,5S,3R,4R,6R)-3,4,5-trihydroxy-6-(hydroxymethyl)perhydro-2H-pyran-2-yl]ethene}phenyl)-1-(4-fluorophenyl)azetidine-2-one]
change in vivo at 3 mg/kg [1, 4]: -136%

melting point: 153 to 155 °C
Compound: O=C1[C@H](CC[C@H](O)c2ccc(F)cc2)[C@@H](c2ccc(CC[C@@H]3O[C@H](CO)[C@@H](O)[C@H](O)[C@H]3O)cc2)N1c1ccc(F)cc1 [Compound 46, (4S,3R)-3-[(3S)-3-(4-Fluorophenyl)-3-hydroxypropyl]4-(4-([(2S,5S,3R,4R,6R)-3,4,5-trihydroxy-6-(hydroxymethyl)perhydro-2H-pyran-2-yl]ethyl}phenyl)-1-(4-fluorophenyl)azetidine-2-one]
change in vivo at 3 mg/kg [1, 4]: -147%

melting point: 82 to 84 °C
Compound: O=C1[C@H](CC[C@H](O)c2ccc(F)cc2)[C@@H](c2ccc(CC[C@@H]3O[C@H](CO)[C@@H](O)[C@H](O)[C@H]3O)cc2)N1c1ccccc1 [Compound 56]
change in vivo at 0.3 mg/kg [1, 4]: -84%

melting point: 116 to 118 °C
Compound: Cc1ccc(N2C(=O)[C@H](CC[C@H](O)c3ccc(F)cc3)[C@H]2c2ccc(CC[C@@H]3O[C@H](CO)[C@@H](O)[C@H](O)[C@H]3O)cc2)cc1 [Compound 57]
change in vivo at 0.3 mg/kg [1, 4]: -81.3%
